Laboratory results published in ChEMBL document CHEMBL1201862, “PubChem BioAssay data set” (2004).
The source made the active and inactive calls.

What was measured:
[1] = HEK-293T viability loss after treatment – luminescence, T-cell screen hits, cytotoxicity control for TCR NF-kB inhibitor project, dose response (AID 489026); assay type: functional, cell-based;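 further: cells exposed to compound about 14 hours before the viability readout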
[2] = non-specific 3'UTR reporter inhibition in Clone20-Shn3RL – cell-based, Renilla luciferase, cherry-picked, counter-screen for Shn3 inhibitor project, dose response (AID 624133); assay type: functional
[3] = reduction of Shn3 3'UTR-driven luciferase in osteoblasts – cell-based, Clone20 osteoblasts, firefly luciferase, cherry-picked, dose response (AID 624132); assay type: functional;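 further: firefly luciferase luminescence from reporter carrying the Shn3 3'UTR in osteoblasts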
INS1 = assay: INS-1E survival protection against cytokine death – cell-based, luminescence, retest, dose response (AID 449756); assay type: functional; conditions: Rattus norvegicus;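 further: cell death triggered by IL-1 beta plus TNF-alpha plus IFN-gamma mixture; protective hits raise ATP signal compared with cytokine alone wells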
[4] = loss of viability in HepG2 cells – cell-based, CellTiter-Glo, cherry-picked, cytotoxicity control for Shn3 inhibitor project, dose response (AID 624134); assay type: functional
[5] = molecular target: T1, Corticotropin-releasing factor receptor 2/Corticotropin-releasing factor-binding protein (Homo sapiens, UniProt P24387+Q13324); assay: Dose Response confirmation of uHTS hits for small molecule antagonists of the CRF-binding protein and CRF-R2 receptor complex.; assay type: functional; conditions: read-out: IC50_Mean
T1 sequence (Q13324 whole entry): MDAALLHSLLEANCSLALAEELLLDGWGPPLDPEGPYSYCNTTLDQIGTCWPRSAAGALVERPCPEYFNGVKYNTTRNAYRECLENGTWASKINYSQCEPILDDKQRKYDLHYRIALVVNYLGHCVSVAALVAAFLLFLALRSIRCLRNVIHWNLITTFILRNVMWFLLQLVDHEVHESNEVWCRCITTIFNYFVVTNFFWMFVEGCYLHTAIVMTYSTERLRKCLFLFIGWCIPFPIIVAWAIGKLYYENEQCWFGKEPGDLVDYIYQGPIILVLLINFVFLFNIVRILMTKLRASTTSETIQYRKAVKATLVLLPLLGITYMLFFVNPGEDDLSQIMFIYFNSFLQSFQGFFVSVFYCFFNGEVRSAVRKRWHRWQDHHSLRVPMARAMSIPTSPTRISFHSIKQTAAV
T1 sequence (P24387 whole entry): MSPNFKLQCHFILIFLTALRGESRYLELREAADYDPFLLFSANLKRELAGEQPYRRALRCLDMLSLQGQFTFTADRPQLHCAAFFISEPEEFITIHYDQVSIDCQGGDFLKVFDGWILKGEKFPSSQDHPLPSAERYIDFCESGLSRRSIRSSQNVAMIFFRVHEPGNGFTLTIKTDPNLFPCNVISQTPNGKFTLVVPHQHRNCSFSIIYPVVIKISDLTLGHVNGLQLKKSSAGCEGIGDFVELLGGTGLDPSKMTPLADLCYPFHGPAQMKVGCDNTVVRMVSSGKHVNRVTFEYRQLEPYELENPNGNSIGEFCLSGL

[6] = molecular target: T1, Corticotropin-releasing factor receptor 2/Corticotropin-releasing factor-binding protein; assay: activators of CRF receptor 2 with binding protein – uHTS hits, confirmation (AID 602473); assay type: functional; conditions: read-out: EC50_Mean
[7] = molecular target: T2, Rac GTPase-activating protein 1 (Homo sapiens, UniProt Q9H0H5); assay: blockers of MgcRacGAP-driven Rac1 GTP hydrolysis – biochemical, ADP Hunter fluorescence, primary and confirmatory, confirmation (AID 624330); assay type: functional
T2 sequence (Q9H0H5 whole entry): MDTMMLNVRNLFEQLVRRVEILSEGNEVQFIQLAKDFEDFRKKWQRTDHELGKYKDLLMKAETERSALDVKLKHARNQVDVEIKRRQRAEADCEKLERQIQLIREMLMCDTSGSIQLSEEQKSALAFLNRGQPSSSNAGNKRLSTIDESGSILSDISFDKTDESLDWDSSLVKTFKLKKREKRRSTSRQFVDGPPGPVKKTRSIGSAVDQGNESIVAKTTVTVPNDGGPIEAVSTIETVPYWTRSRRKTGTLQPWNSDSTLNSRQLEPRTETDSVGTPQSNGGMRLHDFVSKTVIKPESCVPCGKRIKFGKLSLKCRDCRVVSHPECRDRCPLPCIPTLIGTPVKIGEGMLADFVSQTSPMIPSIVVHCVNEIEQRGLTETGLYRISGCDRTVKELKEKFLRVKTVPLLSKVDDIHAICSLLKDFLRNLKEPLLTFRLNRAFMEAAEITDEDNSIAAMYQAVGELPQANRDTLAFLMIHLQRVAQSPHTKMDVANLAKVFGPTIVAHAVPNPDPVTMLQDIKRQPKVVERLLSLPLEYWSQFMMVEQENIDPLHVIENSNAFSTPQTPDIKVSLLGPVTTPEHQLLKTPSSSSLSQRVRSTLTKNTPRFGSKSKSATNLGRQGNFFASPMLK

Fatty acid synthase [8] = molecular target: T3, Fatty acid synthase (Homo sapiens, UniProt P49327); assay: inhibition of human FAS-TE enzyme activity – biochemical, endpoint fluorescence intensity, uHTS hits, dose response (AID 624327); assay type: functional;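 further: fluorescence from hydrolysis of an O-methyl fluorescein acyl ester substrate by the enzyme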
Fatty acid synthase [9] = molecular target: T3, Fatty acid synthase; assay: inhibition of human FAS-TE enzyme activity – biochemical, kinetic fluorescence intensity, dose response (AID 624326); assay type: functional;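 further: rate of fluorescence rise from hydrolysis of a fluorogenic O-methyl fluorescein ester substrate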
cells [10] = assay type: functional, cell-based
[11] = alpha-synuclein stem-loop luciferase translation blockers – H4 neuroglioma cells, luminescence, confirmation (AID 1988); assay type: functional, cell-based
[12] = Luminescence Cell-Based Dose Retest to Confirm Inhibitors of Cancer Stem Cells. [Related pubchem assays (depositor defined):AID2717, AID2721]; assay type: functional; conditions: Homo sapiens
Streptococcus = assay: GAS UMAA2166 growth inhibition – luminescence, BacTiterGlo, counter-screen for streptokinase expression inhibitor project, dose response (AID 1915); assay type: functional, organism-based;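 further: potency for reduction of bacterial viability or growth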
[13] = system: Streptococcus sp. 'group A'; assay: Streptococcus pyogenes SK(-)GAS viability under kanamycin – luminescence, BacTiterGlo, confirmation, counter-screen for streptokinase expression inhibitor project, dose response (AID 1900); assay type: functional, organism-based
[14] = luciferase reporter signal suppression in cells – H4 neuroglioma cells, luminescence, dose response (AID 1990); assay type: functional, cell-based
[15] = Luminescence Cell-Based Dose Response HTS to Identify Inhibitors of 5'UTR Stem-Loop Driven Prion Protein mRNA Translation in H4 Neuroglioblastoma Cells. [Related pubchem assays: 1827 (Project Summary), 1813 (Primary HTS)]; assay type: functional
[16] = molecular target: T4, Heat shock factor protein 1 (Mus musculus, UniProt P38532); assay: enhancement of HSF1-driven luciferase signal – cell-based, NIH3T3, luminescence, dose retest, confirmation (AID 435004); assay type: functional;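 further: stress induced by proteasome inhibitor MG132 added 30 min after compound; luciferase reporter driven by HSF1 response element in NIH3T3 cells; actives raise luminescence as potentiators of the MG132 stress response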
T4 sequence (P38532 whole entry): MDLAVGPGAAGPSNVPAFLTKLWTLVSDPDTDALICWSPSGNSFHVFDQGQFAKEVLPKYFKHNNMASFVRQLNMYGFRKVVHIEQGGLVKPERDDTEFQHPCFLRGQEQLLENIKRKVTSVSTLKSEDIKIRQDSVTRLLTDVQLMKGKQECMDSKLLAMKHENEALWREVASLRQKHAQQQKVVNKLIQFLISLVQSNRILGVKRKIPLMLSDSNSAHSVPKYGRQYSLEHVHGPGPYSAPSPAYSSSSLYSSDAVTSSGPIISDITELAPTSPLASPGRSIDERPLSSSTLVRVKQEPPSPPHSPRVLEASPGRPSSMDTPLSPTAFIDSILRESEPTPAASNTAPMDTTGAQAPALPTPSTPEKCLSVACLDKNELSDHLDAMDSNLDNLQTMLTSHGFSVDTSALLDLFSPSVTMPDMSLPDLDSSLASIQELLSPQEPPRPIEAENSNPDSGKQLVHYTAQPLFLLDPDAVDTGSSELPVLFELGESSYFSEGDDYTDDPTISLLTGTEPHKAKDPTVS

cells [17] = assay type: functional, cell-based; remark: listed apart in the source
[18] = microbe, parasite or virus in culture; assay type: functional; conditions: Mycobacterium tuberculosis
[19] = NIH-3T3 fibroblast cytotoxicity, dose response, cytotoxicity control, cell-based, fluorescence, Alamar Blue, secondary assay (AID 2327); assay type: functional;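 further: NIH-3T3 mouse fibroblasts cultured with fluconazole at 8 µg/mL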
[20] = fluconazole-exposed Candida albicans growth modulators – fluorescence, retest, confirmation (AID 2467); assay type: functional, cell-based

T3 sequence (P49327 whole entry): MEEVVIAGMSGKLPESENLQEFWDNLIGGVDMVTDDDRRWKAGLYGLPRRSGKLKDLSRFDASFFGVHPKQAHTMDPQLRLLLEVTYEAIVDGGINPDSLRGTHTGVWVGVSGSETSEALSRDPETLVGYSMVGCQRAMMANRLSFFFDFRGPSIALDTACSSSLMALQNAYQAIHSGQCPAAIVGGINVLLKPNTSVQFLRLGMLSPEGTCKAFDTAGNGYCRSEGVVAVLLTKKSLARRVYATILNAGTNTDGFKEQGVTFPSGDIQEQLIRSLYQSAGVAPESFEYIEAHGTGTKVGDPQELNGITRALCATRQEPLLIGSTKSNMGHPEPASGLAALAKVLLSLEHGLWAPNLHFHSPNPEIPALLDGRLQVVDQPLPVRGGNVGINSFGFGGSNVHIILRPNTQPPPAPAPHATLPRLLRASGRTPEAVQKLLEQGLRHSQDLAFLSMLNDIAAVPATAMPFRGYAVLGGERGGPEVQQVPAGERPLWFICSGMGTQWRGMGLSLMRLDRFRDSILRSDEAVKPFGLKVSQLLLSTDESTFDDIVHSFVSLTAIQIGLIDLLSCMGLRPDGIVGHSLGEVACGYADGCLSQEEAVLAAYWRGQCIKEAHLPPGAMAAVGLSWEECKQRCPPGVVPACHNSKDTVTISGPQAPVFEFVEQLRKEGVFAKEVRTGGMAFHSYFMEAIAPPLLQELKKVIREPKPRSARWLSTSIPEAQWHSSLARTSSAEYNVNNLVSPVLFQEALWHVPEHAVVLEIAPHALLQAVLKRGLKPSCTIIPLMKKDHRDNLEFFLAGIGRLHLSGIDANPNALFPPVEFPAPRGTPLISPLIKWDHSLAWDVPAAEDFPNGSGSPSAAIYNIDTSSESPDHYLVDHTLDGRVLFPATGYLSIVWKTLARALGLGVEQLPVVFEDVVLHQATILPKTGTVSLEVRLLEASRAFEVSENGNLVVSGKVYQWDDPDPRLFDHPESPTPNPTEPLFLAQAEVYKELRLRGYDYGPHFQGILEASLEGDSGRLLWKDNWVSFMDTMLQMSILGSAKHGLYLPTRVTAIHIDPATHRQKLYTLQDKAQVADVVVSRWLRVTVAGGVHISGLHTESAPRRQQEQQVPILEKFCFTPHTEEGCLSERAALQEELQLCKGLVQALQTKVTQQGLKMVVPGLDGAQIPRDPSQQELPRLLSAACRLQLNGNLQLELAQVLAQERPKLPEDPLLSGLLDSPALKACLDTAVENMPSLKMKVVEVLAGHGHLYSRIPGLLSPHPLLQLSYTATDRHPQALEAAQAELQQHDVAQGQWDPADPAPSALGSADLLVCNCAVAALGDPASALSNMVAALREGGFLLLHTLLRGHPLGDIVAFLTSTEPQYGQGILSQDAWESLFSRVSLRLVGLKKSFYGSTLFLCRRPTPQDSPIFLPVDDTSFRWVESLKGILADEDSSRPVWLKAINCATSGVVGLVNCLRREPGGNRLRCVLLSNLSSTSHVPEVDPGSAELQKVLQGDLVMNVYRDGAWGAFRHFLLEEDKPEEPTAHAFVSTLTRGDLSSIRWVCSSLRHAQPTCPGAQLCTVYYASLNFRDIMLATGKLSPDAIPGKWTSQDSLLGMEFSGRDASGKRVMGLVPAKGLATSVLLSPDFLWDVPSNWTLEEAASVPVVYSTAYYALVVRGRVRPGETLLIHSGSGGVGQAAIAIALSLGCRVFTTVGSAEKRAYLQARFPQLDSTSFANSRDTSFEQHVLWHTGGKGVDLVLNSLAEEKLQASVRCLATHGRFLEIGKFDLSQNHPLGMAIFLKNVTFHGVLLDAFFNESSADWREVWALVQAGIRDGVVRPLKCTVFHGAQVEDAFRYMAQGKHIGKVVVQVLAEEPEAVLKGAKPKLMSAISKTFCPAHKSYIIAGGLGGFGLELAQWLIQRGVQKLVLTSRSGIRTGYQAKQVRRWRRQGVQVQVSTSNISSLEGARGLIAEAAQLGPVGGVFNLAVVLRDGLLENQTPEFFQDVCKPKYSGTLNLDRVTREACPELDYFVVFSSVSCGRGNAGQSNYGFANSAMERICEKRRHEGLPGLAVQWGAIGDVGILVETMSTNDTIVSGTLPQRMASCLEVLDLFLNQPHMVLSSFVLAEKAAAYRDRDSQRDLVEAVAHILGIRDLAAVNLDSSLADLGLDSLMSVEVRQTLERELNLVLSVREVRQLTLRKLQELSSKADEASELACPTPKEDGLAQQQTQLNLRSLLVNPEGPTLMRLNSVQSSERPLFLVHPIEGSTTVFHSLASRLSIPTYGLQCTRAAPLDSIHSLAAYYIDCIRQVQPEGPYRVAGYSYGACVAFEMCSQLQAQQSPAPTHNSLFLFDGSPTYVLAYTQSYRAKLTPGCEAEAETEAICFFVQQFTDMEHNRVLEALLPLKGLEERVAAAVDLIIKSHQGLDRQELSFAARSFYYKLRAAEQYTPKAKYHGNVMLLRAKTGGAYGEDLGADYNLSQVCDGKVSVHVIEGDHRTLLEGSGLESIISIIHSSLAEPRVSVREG

With `COC(=O)c1ccc(Oc2cc(C)nc(SC)n2)cc1` the IC50 [1] was > 80 µM (inactive).
In the case of `CC(=O)N1CCCc2cc(S(=O)(=O)N3CCCC(C(=O)N4CCN(c5cccc(Cl)c5)CC4)C3)ccc21` (stereo unspecified), the AC50 [2] is reported as 1.13 µM (active), the AC50 [3] is reported as 1.9 µM (active) and the AC50 (INS1) is reported as 2.88 µM (active). The AC50 [4] was 3.29 µM (active).
For `CCCCC1(Cc2ccc([N+](=O)[O-])cc2)C(=O)N(c2ccccc2)N(c2ccccc2)C1=O`, the AC50 [2] was 3.42 µM (active), the AC50 [3] was 10.2 µM (active) and the AC50 (INS1) was 3.67 µM (active). For the same compound, the AC50 [4] was 66.8 µM (active).
With `Cc1ccc2c(c1)C(C)CC(C)(C)N2C(=O)CN1CCN(C)CC1` (stereo unspecified) the IC50 [5] was > 47.1 µM (inactive), the EC50 [6] was > 53 µM (inactive) and the IC50 [7] was 73.3 µM (active).
With `CC(=O)N(Cc1ccco1)c1nc(C(=O)Nc2ccc(Cl)cc2)c(C)s1` the IC50 [5] was > 47.1 µM (inactive) and the EC50 [6] was > 53 µM (inactive).
In the case of `CC(C)(C)c1cc(Br)c(O)c(N=Nc2ccc(S(=O)(=O)N3CCOCC3)cc2)c1`, the IC50 (Fatty acid synthase [8]) is reported as 3.8 µM (active) and the IC50 (Fatty acid synthase [9]) is reported as 2.66 µM (active).
In the case of `CCCCSc1nc(C)cc(SCC(=O)N/N=C/c2cccc(OC)c2O)n1`, the EC50 (cells [10]) is reported as 15 µM (active), the EC50 [11] is reported as 10.2 µM (active) and the AC50 [12] is reported as 7.03 µM (active). For the same compound, the EC50 (Streptococcus) was 2.61 µM (active), the EC50 [13] was 2.31 µM (active) and the EC50 [14] was 11.6 µM (active). The EC50 [15] was 9.62 µM (active), the EC50 [16] was > 260 µM (inactive) and the EC50 (cells [17]) was > 350 µM (not active).
In the case of `CCCN(C(=O)CCOc1ccc(C(C)(C)C)cc1)c1c(N)n(Cc2ccccc2)c(=O)[nH]c1=O`, the CC50 [18] is reported as > 40 µM (active).
With `C/C(=N\NC(=O)c1cc(-c2cccnc2)nc2ccccc12)c1ccc(O)cc1O` the EC50 [19] was 4.94 µM (active), the EC50 (cells [10]) was 10.9 µM (active) and the EC50 [11] was 8.88 µM (active). For the same compound, the EC50 [14] was 5.99 µM (active), the AC50 (INS1) was 0.661 µM (active) and the EC50 [15] was 9.7 µM (active). For the same compound, the EC50 [20] was > 38 µM (not active) and the EC50 (cells [17]) was > 350 µM (not active).
For `COc1ccc(Nc2nc3cc(C)ccc3cc2C#N)c(OC)c1`, the IC50 [1] was > 80 µM (inactive).
With `CCN(CC)S(=O)(=O)c1ccc(NC(=O)c2ccc(CN3CCOCC3)cc2)cc1` the IC50 [1] was > 80 µM (inactive).
